Entries after “also recorded” stand apart in the source; their conditions may differ. *1 amine or outer side, *2 acyl side, *3 side chain or, on linkers, in order; H or OH if unused. Where a SMILES comes first, the peptide text is derived from it. [ ]: non-standard residue; d: D form. X1 = O=C([C@H](Cc1c[nH]c(=S)[nH]1)N[*:1])[*:2]
Legend:
[1] = Hydroxyl radical scavenging activity by room temperature EPR (Fenton reaction, DMPO spin trap); assay type: biochemical; conditions: for Hydroxyl Radical RSA (%): all analytes at 1 mM, potassium phosphate pH 7.4, average of three or more trials; for increase in ·OH scavenging ability on substituting 2-thioHis for His: difference of RSA versus His-containing counterpart; for increase in ·OH scavenging ability on substituting 2-thioHis for His / ability to scavenge ·OH (in words): 1 mM
Experimental: Measurement of hydroxyl radical scavenging activity. Hydroxyl radical scavenging activity of peptides was measured with room temperature EPR spectroscopy according to known methods with some modifications. Hydroxyl radicals were generated by the iron-catalyzed Fenton Haber-Weiss reaction, and the generated hydroxyl radicals were reacted with the nitrone spin trap 5,5-dimethyl-1-pyrroline-N-oxide (DMPO). The resultant DMPO-OH adducts were detectable with EPR spectroscopy. The peptide (1 mM final concentration) was added to a solution containing: 24 mM DMPO, 0.8 mM FeSO4, and 0.8 mM H2O2 in 100 mM potassium phosphate buffer, pH 7.4 in a final reaction volume of 250 μL. This solution was immediately transferred into a 50 μL quartz capillary tube. After 5 min, the EPR spectrum was recorded using a Bruker X-band EPR spectrometer operating at 9.42 GHz. The experimental conditions employed were as follows: magnetic field, 336.5±10 mT; power, 2 mW; modulation amplitude, 2.00 G; time constant, 327.68 ms, modulation frequency, 100 kHz; receiver gain, 30 dB sweep time, 60 s. Trials were performed in triplicate for each peptide. The double integral of the EPR spectra was obtained and used to determine the signal intensity for each sample. The hydroxyl radical scavenging ability was calculated using Equation 3, in which H and H0 are relative peak height of radical signals with and without sample, respectively. [formula]

[2] = DPPH radical scavenging activity (UV-Vis, 517 nm); assay type: biochemical; conditions: for DPPH Radical TEAC: Trolox equivalent antioxidant capacity, 50 μM DPPH, 15 min, pH 7.0, 60:40 ethanol:buffer, ND = activity too low to be determined, TEAC close to zero; for ability to scavenge DPPH radical (in words): absorbance peak at 517 nm
Experimental: Measurement of 2,2-diphenyl-1-picrylhydrazyl (DPPH) radical scavenging activity. DPPH activity assays were conducted according to procedures known in the art. A 1 mM stock solution of DPPH was prepared by dissolving DPPH in 95% ethanol. Peptide stock solutions were prepared at a concentration of 5 mM in 100 mM potassium phosphate buffer, pH 7.0 for each of the His- and 2-thioHis-containing peptides. 6-hydroxy-2,5,7,8-tetramethylchromane-2-carboxylic acid (Trolox) was used as a standard for antioxidant activity and a positive control. A 5 mM solution of Trolox in 100 mM potassium phosphate, pH 7.0 was prepared. A blank was prepared by mixing 600 μL of 95% ethanol with 400 μL of 100 mM potassium phosphate, pH 7.0 in a cuvette. This solution was used to blank the spectrophotometer from 200-800 nm. In each sample, a 60:40 ratio of ethanol:buffer was maintained. To test the ability of Trolox and the different peptides to reduce DPPH, 50 μM DPPH was combined with different concentrations of peptide or Trolox ranging from 5 μM to 500 μM and the total volume of each sample was adjusted to 1 mL with buffer and ethanol. The samples were allowed to incubate at room temperature in the dark for 15 min, after which each sample was scanned and changes in the absorbance at 517 nm were monitored. Trials were run in triplicate for each of the peptides and Trolox. For every trial, one sample was prepared with only 50 μM DPPH (no peptide or Trolox) to serve as a control. The percentage of inhibition of DPPH oxidation was calculated using Equation 1:
(§1) [formula] where Acontrol is the absorbance of the control (DPPH and buffer only) and Asample is the absorbance at 517 nm of the test peptide/standard. A Trolox calibration curve was prepared with concentrations ranging from 5-50 μM (FIG. 13). Similar curves were prepared for each of the peptides (FIG. 13). These curves were used to calculate Trolox equivalent antioxidant capacity (TEAC) values for each of the peptides by calculating the ratio of peptide to Trolox to achieve the same percent reduction of DPPH.

[3] = ABTS radical scavenging activity (UV-Vis, 734 nm); assay type: biochemical; conditions: for ABTS radical TEAC: Trolox equivalent antioxidant capacity, 10 min, PBS pH 7.2, average of three or more trials, ND = activity too low to be determined, TEAC close to zero; for ability to scavenge ABTS radical (in words): absorbance peak at 734 nm
Experimental: Measurement of 2,2′-azino-di-[3-ethylbenzthiazoline sulfonate (6)] (ABTS) radical scavenging activity. ABTS scavenging assays were performed according to previously published protocols with some modifications. A 10 mM stock solution of potassium persulfate was prepared in deionized water. A stock solution of ABTS was prepared by dissolving 7 mM ABTS and 2.45 mM potassium persulfate in deionized water. This solution was allowed to incubate at room temperature in the dark for 12-16 h to allow potassium persulfate to oxidize the ABTS. Following oxidation, the solution was a dark blue/green color. This solution was stable in the dark at room temperature for at least 48 h. This solution was diluted with 100 mM phosphate buffered saline, pH 7.2 so that the final absorbance was 0.70±0.02 at 734 nm. Stock solutions for all peptides and for Trolox were prepared in a range from 0.1 mM to 3.2 mM in 100 mM phosphate buffered saline, pH 7.2. To test the ability of Trolox and peptides to reduce the ABTS radical cation, samples were prepared with 990 μL of the diluted ABTS solution and 10 μL of each of the peptide or Trolox stock solutions. For every trial, one sample was prepared with 990 μL ABTS and 10 μL of buffer. The samples were allowed to incubate at room temperature in the dark for 10 min. The spectrophotometer was blanked with 1 mL of 100 mM phosphate buffered saline, pH 7.2 from 200-800 nm. Scans were taken for each of the samples and the change in absorbance at 734 nm was monitored. Every sample was run in triplicate and the results were averaged. The percentage of inhibition of ABTS oxidation was calculated using Equation 2.
as §1, with “(ABTS” for “(DPPH”, “734” for “517”, “1-32” for “5-50”, “14).” for “13).”, “TEAC” for “Trolox equivalent antioxidant capacity (TEAC)”, “ABTS.” for “DPPH.”

[4] = Low temperature (95 K) EPR of peptide-Cu(II) complexes; assay type: binding; conditions: from EPR spectra, not quantified
Experimental: Low temperature EPR studies. The ability of each peptide to bind Cu(II) was determined by low temperature (95 K) EPR spectroscopy using the methods known in the art with some modifications. Samples of 200 μM and 400 μM peptide were incubated for 10 min at room temperature with 200 μM CuCl2 in 100 mM potassium phosphate, pH 7.4. Following incubation, aliquots of each sample were transferred into 4 mm inner diameter quartz EPR tubes (Wilmad-LabGlass). The samples were frozen in liquid nitrogen and stored in liquid nitrogen prior to use. Control samples were prepared with only buffer and with 200 μM CuCl2 in potassium phosphate buffer. Low temperature EPR spectra were gathered with a Bruker EPR spectrometer operating at 9.42 GHz with the following parameters: scan range, 6000 G; field set, 3200 G; time constant, 164 ms; scan time, 60 s; modulation amplitude, 7.000 G; modulation frequency, 100 kHz; receiver gain, 30 dB; microwave power, 20 mW; and number of scans, 5.

Molecule	Hydroxyl Radical RSA (%) [1]	increase in ·OH scavenging ability on substituting 2-thioHis for His [1]	DPPH Radical TEAC [2]	ability to scavenge DPPH radical (in words) [2]	ABTS radical TEAC [3]	ability to scavenge ·OH (in words) [1]	ability to scavenge ABTS radical (in words) [3]	affinity for / binding of Cu(II) (in words) [4]
NC(Cc1c[nH]c(=S)[nH]1)C(=O)O [2-thioHis, L-2-thiohistidine]	56.0 ± 2.1%	7.5%	1.00 ± 0.02	same ability as Trolox	1.50 ± 0.03	–	–	–
NCCC(=O)N[C@@H](Cc1cnc[nH]1)C(=O)O [Carnosine, H-βAH-OH, reference compound]	31.4 ± 4.2%	–	–	–	–	not a good ·OH scavenger	–	–
N[C@@H](Cc1c[nH]cn1)C(=O)O [His, histidine]	48.5 ± 7.3%	–	–	–	–	–	–	–
Cc1c(C)c2c(c(C)c1O)CCC(C)(C(=O)O)O2 (centres unmarked) [Trolox, 6-hydroxy-2,5,7,8-tetramethylchromane-2-carboxylic acid, reference compound]	–	–	1.00	–	1.00	–	–	–
CC(C)C[C@H](NC(=O)[C@@H]1CCCN1C(=O)CNC(=O)[C@H](CC(C)C)NC(=O)[C@@H]1CCCN1C(=O)CNC(=O)[C@@H](N)Cc1c[nH]c(=S)[nH]1)C(=O)O [thioHGPLGPL, H-thioHGPLGPL-OH] (H-[X1]GPLGPL-OH)	59.7 ± 3.0%	12%	0.95 ± 0.01	–	2.14 ± 0.02	equivalent to 2-thioHis itself	–	–
H-GHK-OH [reference compound]	65.4 ± 0.008%	–	–	only a slight decrease in the DPPH absorbance peak at 517 nm	–	–	no decrease in the ABTS absorbance peak at 734 nm	–
H-GthioHK-OH	97.0 ± 0.3%	31.6%	0.95 ± 0.02	completely reduce the DPPH and ABTS radicals	2.61 ± 0.01	highest RSA of all compounds tested; also recorded: nearly completely abolishing the signal	completely reduce the DPPH and ABTS radicals; also recorded: slightly higher TEAC value than the other 2-thioHis peptides	–
H-βAthioH-OH [thioHcarnosine]	43.5 ± 1.1%	13%	0.80 ± 0.01	–	2.25 ± 0.05	less than 2-thioHis	–	higher affinity for Cu(II) than carnosine
HGPLGPL [H-HGPLGPL-OH, reference compound]	46.8 ± 1.3%	–	–	–	–	–	–	–
